Results as given in ChEMBL document CHEMBL3991601, “The target landscape of clinical kinase drugs” (Science, 2017).
Activity calls are given as the source filed them. For most assays here, no stated cut-off is given here; in the data, actives have a measured Kd and inactives only a lower limit.

Columns and labels:
[1] = target: Citron Rho-interacting kinase (Homo sapiens, UniProt O14578)
[2] = target: T1, Serine/threonine-protein kinase Nek9 (Homo sapiens, UniProt Q8TD19)
T1 sequence (Q8TD19 whole entry): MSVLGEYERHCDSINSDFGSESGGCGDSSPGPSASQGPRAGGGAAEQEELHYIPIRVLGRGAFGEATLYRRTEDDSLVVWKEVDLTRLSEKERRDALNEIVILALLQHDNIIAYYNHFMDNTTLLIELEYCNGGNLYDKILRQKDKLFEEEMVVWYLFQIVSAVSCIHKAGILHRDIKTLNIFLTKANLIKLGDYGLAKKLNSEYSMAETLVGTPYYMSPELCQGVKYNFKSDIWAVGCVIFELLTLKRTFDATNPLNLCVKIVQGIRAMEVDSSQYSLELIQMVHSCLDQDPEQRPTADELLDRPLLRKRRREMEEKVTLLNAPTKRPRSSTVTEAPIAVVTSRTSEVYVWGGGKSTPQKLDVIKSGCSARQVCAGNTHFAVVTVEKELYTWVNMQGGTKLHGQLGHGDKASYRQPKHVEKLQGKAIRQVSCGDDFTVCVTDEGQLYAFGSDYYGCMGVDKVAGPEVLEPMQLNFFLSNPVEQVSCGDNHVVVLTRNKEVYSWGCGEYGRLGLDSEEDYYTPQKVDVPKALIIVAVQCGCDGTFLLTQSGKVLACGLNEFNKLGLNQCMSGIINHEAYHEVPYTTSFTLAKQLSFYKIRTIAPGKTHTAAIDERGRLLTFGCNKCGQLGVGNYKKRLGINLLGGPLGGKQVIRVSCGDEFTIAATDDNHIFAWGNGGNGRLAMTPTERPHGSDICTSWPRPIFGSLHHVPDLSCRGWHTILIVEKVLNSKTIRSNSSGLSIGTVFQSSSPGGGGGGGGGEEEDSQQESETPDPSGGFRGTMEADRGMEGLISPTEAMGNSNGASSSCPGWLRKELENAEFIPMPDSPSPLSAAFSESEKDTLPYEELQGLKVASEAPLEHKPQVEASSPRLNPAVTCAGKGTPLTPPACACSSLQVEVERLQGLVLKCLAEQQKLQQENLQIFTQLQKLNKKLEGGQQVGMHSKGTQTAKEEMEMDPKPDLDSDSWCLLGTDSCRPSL

[3] = target: T2, DNA replication licensing factor MCM4 (Homo sapiens, UniProt P33991)
T2 sequence (P33991 whole entry): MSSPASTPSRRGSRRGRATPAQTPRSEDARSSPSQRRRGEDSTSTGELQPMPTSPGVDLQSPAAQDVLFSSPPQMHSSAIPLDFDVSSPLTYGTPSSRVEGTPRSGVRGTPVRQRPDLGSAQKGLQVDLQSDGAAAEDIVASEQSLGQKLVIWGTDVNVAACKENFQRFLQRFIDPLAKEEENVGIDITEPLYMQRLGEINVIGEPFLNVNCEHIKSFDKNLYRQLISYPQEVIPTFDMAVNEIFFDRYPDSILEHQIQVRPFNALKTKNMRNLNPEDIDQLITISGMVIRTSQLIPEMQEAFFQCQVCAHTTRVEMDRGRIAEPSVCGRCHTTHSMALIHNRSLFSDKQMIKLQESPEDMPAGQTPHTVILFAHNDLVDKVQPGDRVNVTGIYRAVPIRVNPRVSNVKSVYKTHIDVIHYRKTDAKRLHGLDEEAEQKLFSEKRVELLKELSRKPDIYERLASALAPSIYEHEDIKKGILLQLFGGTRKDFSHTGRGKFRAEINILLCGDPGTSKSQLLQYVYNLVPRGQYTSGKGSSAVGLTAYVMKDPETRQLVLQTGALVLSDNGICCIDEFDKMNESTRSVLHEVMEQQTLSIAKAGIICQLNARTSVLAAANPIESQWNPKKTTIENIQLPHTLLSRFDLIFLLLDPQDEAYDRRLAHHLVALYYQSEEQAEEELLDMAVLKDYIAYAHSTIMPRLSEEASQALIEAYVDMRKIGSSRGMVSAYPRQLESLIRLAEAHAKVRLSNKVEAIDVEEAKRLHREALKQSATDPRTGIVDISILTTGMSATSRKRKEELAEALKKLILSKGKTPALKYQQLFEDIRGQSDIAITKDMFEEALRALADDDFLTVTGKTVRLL

[4] = target: T3, Serine/threonine-protein kinase TBK1 (Homo sapiens, UniProt Q9UHD2)
T3 sequence (Q9UHD2 whole entry): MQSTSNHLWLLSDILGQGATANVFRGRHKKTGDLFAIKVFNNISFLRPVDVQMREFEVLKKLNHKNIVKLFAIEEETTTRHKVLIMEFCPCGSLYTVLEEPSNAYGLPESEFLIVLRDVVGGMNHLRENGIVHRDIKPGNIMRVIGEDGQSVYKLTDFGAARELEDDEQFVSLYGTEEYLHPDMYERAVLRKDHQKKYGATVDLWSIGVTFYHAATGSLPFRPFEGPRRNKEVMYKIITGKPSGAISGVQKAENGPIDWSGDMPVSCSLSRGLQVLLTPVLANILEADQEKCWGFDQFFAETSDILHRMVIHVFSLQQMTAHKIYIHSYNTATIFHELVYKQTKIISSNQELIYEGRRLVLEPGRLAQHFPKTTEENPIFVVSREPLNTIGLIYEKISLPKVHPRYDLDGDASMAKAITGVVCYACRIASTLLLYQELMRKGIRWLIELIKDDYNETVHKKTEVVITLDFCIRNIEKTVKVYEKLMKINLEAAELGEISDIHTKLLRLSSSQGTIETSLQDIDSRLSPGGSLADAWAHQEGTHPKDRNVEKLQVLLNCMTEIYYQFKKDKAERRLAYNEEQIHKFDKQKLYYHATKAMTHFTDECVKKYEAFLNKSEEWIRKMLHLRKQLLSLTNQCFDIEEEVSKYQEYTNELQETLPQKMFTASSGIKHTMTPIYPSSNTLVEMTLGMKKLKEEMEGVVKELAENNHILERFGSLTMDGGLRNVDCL

[5] = target: Non-receptor tyrosine-protein kinase TYK2 (Homo sapiens, UniProt P29597)
[6] = target: Tyrosine-protein kinase CSK (Homo sapiens, UniProt P41240)

Chain of Citron Rho-interacting kinase (O14578 whole entry): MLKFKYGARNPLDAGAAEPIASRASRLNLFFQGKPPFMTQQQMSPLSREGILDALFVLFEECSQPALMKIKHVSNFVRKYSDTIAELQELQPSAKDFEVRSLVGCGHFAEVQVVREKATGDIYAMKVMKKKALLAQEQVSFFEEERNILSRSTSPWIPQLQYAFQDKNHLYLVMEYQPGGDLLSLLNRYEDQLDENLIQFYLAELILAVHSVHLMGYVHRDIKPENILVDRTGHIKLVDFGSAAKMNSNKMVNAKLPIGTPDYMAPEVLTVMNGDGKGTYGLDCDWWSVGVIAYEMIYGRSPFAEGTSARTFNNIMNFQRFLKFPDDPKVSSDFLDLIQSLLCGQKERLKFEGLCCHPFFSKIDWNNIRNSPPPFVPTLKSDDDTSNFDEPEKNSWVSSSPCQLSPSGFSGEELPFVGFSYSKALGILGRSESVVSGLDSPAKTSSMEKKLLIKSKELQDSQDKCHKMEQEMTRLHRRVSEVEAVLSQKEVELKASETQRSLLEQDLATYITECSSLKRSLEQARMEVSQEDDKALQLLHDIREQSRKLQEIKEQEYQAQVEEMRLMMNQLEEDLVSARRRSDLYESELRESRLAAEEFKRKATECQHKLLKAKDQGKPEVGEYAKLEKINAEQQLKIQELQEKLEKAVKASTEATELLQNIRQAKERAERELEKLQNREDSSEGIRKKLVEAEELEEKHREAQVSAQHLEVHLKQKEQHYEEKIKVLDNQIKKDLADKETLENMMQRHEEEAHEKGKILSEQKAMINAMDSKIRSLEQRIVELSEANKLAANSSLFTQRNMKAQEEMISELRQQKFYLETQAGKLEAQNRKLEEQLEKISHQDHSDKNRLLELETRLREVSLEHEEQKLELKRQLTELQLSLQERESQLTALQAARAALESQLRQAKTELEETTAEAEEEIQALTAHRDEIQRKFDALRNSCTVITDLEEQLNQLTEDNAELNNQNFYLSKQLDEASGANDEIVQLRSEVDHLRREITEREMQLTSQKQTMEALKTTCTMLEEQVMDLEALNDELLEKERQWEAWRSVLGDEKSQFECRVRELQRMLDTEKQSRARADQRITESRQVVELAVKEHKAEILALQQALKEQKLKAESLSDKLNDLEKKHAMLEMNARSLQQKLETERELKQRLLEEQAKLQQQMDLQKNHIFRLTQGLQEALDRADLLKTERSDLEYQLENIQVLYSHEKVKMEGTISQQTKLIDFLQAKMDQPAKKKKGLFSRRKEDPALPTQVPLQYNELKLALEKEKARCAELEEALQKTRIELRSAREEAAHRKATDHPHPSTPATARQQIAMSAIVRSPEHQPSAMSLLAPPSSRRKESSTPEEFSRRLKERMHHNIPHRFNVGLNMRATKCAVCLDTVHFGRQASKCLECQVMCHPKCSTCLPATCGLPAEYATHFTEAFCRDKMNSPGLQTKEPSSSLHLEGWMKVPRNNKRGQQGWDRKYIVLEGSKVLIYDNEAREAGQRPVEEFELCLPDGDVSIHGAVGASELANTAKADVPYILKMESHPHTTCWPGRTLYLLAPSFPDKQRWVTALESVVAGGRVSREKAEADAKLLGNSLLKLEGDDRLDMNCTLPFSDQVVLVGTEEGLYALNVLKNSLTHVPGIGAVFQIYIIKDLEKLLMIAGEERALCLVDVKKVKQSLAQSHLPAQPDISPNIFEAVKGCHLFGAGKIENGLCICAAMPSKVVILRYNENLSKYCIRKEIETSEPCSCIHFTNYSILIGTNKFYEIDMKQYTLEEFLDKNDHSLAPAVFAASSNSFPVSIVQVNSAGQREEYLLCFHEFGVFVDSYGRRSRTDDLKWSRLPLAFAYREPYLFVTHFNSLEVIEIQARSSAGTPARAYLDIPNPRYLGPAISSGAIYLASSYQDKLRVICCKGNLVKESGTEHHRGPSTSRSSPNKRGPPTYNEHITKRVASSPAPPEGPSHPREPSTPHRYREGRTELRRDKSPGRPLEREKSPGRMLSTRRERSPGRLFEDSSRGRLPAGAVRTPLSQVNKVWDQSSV
Chain of Non-receptor tyrosine-protein kinase TYK2 (P29597 whole entry): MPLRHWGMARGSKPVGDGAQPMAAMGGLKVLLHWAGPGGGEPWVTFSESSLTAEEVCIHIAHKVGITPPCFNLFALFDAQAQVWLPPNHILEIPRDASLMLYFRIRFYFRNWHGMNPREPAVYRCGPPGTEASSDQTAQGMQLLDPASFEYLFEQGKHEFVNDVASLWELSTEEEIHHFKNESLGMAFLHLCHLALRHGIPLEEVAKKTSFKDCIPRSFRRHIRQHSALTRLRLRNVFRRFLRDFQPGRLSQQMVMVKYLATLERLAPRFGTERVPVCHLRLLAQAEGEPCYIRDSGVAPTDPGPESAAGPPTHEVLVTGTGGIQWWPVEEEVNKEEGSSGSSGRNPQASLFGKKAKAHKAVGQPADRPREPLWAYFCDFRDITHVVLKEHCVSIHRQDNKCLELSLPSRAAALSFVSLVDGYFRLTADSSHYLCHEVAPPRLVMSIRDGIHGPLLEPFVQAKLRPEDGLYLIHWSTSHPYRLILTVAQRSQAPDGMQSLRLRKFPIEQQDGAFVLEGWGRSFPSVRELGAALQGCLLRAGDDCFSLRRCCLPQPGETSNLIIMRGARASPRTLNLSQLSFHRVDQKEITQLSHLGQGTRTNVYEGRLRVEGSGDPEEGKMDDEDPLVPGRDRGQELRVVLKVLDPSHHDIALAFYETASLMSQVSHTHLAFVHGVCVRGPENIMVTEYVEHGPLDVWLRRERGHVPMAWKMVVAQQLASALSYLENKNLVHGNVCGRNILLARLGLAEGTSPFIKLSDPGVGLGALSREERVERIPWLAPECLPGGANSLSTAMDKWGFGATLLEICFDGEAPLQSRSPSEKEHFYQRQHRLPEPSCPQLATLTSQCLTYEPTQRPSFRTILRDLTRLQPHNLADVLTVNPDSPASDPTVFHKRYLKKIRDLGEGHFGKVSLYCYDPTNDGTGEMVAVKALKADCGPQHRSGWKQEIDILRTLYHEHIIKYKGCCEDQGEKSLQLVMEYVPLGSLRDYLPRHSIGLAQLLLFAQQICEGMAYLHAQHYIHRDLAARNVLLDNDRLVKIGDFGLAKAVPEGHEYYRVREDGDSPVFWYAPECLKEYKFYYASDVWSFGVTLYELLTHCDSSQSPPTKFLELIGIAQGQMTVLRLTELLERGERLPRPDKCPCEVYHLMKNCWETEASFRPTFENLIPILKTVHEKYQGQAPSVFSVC

| Kd [1] | Kd [3] | Kd [4] | Kd [5] | Kd [6] | Structure (SMILES) | Kd [2] |
| --- | --- | --- | --- | --- | --- | --- |
| > 30 µM (inactive) | > 30 µM (inactive) | > 30 µM (inactive) | > 30 µM (inactive) | > 30 µM (inactive) | CCN1CCN(Cc2ccc(-c3cc4c(N[C@H](C)c5ccccc5)ncnc4[nH]3)cc2)CC1 [AEE-788] | > 30 µM (inactive) |
| > 30 µM (inactive) | > 30 µM (inactive) | > 30 µM (inactive) | > 30 µM (inactive) | > 30 µM (inactive) | COc1cc(N2CCC(N3CCN(C)CC3)CC2)ccc1Nc1ncnc(Nc2ccccc2S(=O)(=O)C(C)C)n1 [ASP-3026] | > 30 µM (inactive) |
| > 30 µM (inactive) | > 30 µM (inactive) | > 30 µM (inactive) | > 30 µM (inactive) | > 30 µM (inactive) | COc1cc(CCc2cc(NC(=O)c3ccc(N4C[C@@H](C)N[C@@H](C)C4)cc3)n[nH]2)cc(OC)c1 [AZD-4547] | > 30 µM (inactive) |
| > 30 µM (inactive) | > 30 µM (inactive) | > 30 µM (inactive) | > 30 µM (inactive) | > 30 µM (inactive) | Cc1cc([C@@H](C)Nc2ccccc2C(=O)O)c2nc(N3CCOCC3)cc(=O)n2c1 [AZD-6482] | > 30 µM (inactive) |
| > 30 µM (inactive) | > 30 µM (inactive) | > 30 µM (inactive) | > 30 µM (inactive) | > 30 µM (inactive) | COc1ccc(-c2ccc3c(N4CCOC[C@@H]4C)nc(N4CCOC[C@@H]4C)nc3n2)cc1CO [AZD-8055] | > 30 µM (inactive) |
| 1.1 µM (active) | > 30 µM (inactive) |  |  | > 30 µM (inactive) | Cc1nc(N)sc1-c1ccnc(Nc2ccc(N3CCOCC3)cc2)n1 [CYC-116] | 0.133 µM (active) |
| > 30 µM (inactive) | > 30 µM (inactive) |  |  | > 30 µM (inactive) | Cc1cc(Nc2cc(N3CCN(C)CC3)nc(/C=C/c3ccccc3)n2)n[nH]1 [ENMD-2076] |  |
|  | > 30 µM (inactive) |  |  |  | CCn1c(-c2nonc2N)nc2c(C#CC(C)(C)O)ncc(OC[C@H]3CCCNC3)c21 [GSK-690693] |  |
| > 30 µM (inactive) |  | > 30 µM (inactive) | > 30 µM (inactive) | > 30 µM (inactive) | Cn1cc(-c2ccc3nnc(C(F)(F)c4ccc5ncccc5c4)n3n2)cn1 [JNJ-38877605] | > 30 µM (inactive) |

Continued, compound first:

| Structure (SMILES) | Kd [1] | Kd [3] | Kd [4] | Kd [5] | Kd [6] | Kd [2] |
| --- | --- | --- | --- | --- | --- | --- |
| N[C@@H]1CCCN(c2c(/C=C3\SC(=O)NC3=O)cccc2-c2ccccc2)C1 | > 30 µM (inactive) | > 30 µM (inactive) | > 30 µM (inactive) | > 30 µM (inactive) | > 30 µM (inactive) | > 30 µM (inactive) |
| Cc1ccc(S(=O)(=O)Nc2nc3ccccc3nc2Nc2ccc3nsnc3c2)cc1 | > 30 µM (inactive) | > 30 µM (inactive) | > 30 µM (inactive) | > 30 µM (inactive) | > 30 µM (inactive) | > 30 µM (inactive) |
| CN1CC[C@@H](c2c(O)cc(O)c3c(=O)cc(-c4ccccc4Cl)oc23)[C@@H]1CO | > 30 µM (inactive) | > 30 µM (inactive) | > 30 µM (inactive) | > 30 µM (inactive) | > 30 µM (inactive) | > 30 µM (inactive) |
| Cc1cc(-c2cc(O)ccc2Cl)cc2nnc(Nc3ccc(OCCN4CCCC4)cc3)nc12 | 0.003 µM (active) | > 30 µM (inactive) | > 30 µM (inactive) | 0.0007 µM (active) | > 30 µM (inactive) | > 30 µM (inactive) |
| Cn1ncc(Cl)c1-c1cc(C(=O)N[C@H](CN)Cc2cccc(F)c2)sc1Cl [AFURESERTIB] | 4.26 µM (active) | > 30 µM (inactive) | > 30 µM (inactive) | > 30 µM (inactive) | > 30 µM (inactive) | > 30 µM (inactive) |
| CNS(=O)(=O)Nc1nccc(Cc2c(C)c3ccc(Oc4ncccn4)cc3oc2=O)c1F [AVUTOMETINIB] | > 30 µM (inactive) | > 30 µM (inactive) | > 30 µM (inactive) | > 30 µM (inactive) | > 30 µM (inactive) | > 30 µM (inactive) |
| CCc1cnn2c(NCc3ccc[n+]([O-])c3)cc(N3CCCC[C@H]3CCO)nc12 [DINACICLIB] | > 30 µM (inactive) | > 30 µM (inactive) |  | > 30 µM (inactive) | > 30 µM (inactive) | > 30 µM (inactive) |
| CN1CCN(c2ccc3nc(-c4c(N)c5c(F)cccc5[nH]c4=O)[nH]c3c2)CC1 [DOVITINIB] |  | > 30 µM (inactive) |  |  |  |  |
| Cn1cc(-c2ccc(F)c(C(F)(F)F)c2)nc1C1CCN(c2ncnc3[nH]ncc23)CC1 [LY-2584702] | > 30 µM (inactive) |  | > 30 µM (inactive) | > 30 µM (inactive) | > 30 µM (inactive) | > 30 µM (inactive) |
| Cc1cn(-c2cc(NC(=O)c3ccc(C)c(Nc4nccc(-c5cccnc5)n4)c3)cc(C(F)(F)F)c2)cn1 [NILOTINIB] |  | > 30 µM (inactive) |  |  |  |  |
| C1=C/COCc2cc(ccc2OCCN2CCCC2)Nc2nccc(n2)-c2cccc(c2)COC/1 [PACRITINIB] | > 30 µM (inactive) |  | 49.6 µM (active) |  | > 30 µM (inactive) | 1.78 µM (active) |
| OCCn1cc(-c2cnc3nnn(Cc4ccc5ncccc5c4)c3n2)cn1 [PF-04217903] | > 30 µM (inactive) | > 30 µM (inactive) |  | > 30 µM (inactive) | > 30 µM (inactive) | > 30 µM (inactive) |
| COc1cc(OC)c(/C=C/S(=O)(=O)Cc2ccc(OC)c(NCC(=O)O)c2)c(OC)c1 [RIGOSERTIB] | > 30 µM (inactive) |  | > 30 µM (inactive) | > 30 µM (inactive) | > 30 µM (inactive) | > 30 µM (inactive) |
| O=C(Nc1cccc(Cl)c1)Nc1ncc(CCNc2ncnc3ccsc23)s1 [SNS-314] |  | > 30 µM (inactive) |  |  | > 30 µM (inactive) | > 30 µM (inactive) |
| CN1CCC(COc2cnc(-c3cccc(Cn4nc(-c5cccc(C#N)c5)ccc4=O)c3)nc2)CC1 [TEPOTINIB] | > 30 µM (inactive) | > 30 µM (inactive) | > 30 µM (inactive) |  | > 30 µM (inactive) | > 30 µM (inactive) |
| Nc1nc(N)c2nc(-c3cccc(O)c3)c(-c3cccc(O)c3)nc2n1 [TG100-115] |  | > 30 µM (inactive) |  |  |  |  |
